Reference: patent US11773062B2, “Deuterated compounds” (priority 2021, dated 2023)

Key:
[1] = Human liver mitochondrial fraction intrinsic clearance of SPL026 with/without MAO-A and MAO-B inhibitors; format: in vitro ADME
Source text: (§1) Human Liver Mitochondrial (HLMt) fractions contain high quantities of MAO enzymes and therefore, provide a useful tool to measure the clearance of MAO substrates.

[2] = In vitro mouse hepatocytic intrinsic clearance; conditions: male, CD-1, mouse, hepatocytes
CYP2D6 [3] = molecular target: T1, CYP2D6 (Homo sapiens, UniProt P10635)
Experimental: (§5) The CYPs used in this study are heterologously expressed in E. coli and purchased as individualised forms (CYP bactosomes) from CYPEX. Bactosomes contain recombinant CYP isoenzymes combined with CYP reductase leading to a higher specific activity than liver microsomes.
(§6) Phosphate buffer is prepared at 0.1 M, pH 7.4 by combining 0.1 M Na2HPO4 and 0.1 M KH2PO4 solutions.
(§7) Nicotinamide adenine dinucleotide 2′-phosphate reduced tetrasodium salt hydrate (NADPH) is prepared at 10 m<in 0.1 M phosphate buffer (pH 7.4).
(§8) The individual CYP bactosomes are thawed at room temperature undiluted to 200 pmol/mL and 0.1 M phosphate buffer.
(§9) Standard final incubation conditions are 1-3 μM compound in a buffer containing 100 pmol/mL CYP bactosome, 1% (v/v) DMSO.
(§10) The elimination rate constant (k) is calculated using the slope of a ln (MS peak area or response—if internal standard is used) vs. time plot of the test compounds and markers.
(§11) Intrinsic clearance in μL/min/nmol CYP is calculated using the following equation: Clint=−1000 k/CYP concentration
(§12) Projected CYP isoform intrinsic clearance accounting for estimated CYP abundance in human liver microsomes (μL/min/mg microsomal protein)* is calculated using the following equation: Projected set isoform intrinsic clearance=Estimated CYP abundance*Clint * Estimated CYP abundance is taken as an average from three literature references 1, 2 3 and the abundances used are as follows (nmol CYP/mg Human Liver Microsomal Protein):

CYP2D6 [4] = molecular target: T1, CYP2D6; experiment: in vitro; conditions: recombinant enzyme, pH 7.4
Experimental: as §5, §6, §7, §8, §9, §10, §11, §12

[5] = test system: human (mixed gender) hepatocytes; experiment: In vitro intrinsic clearance in human hepatocytes with and without MAO-A/B inhibitor combination (first experiment)
Experimental: Standard final incubation conditions are 1 μM compound in buffer containing nominally ˜0.5 million viable cells/mL, ˜0.9% (v/v) acetonitrile (MeCN) and ˜0.1% (v/v) DMSO (specific assay concentrations outlined above, section 2).
Samples are then centrifuged at 4° C.

CYP2D6 [6] = molecular target: T1, CYP2D6; experiment: CYP phenotyping, CYP bactosomes
Experimental: as §5, §6, §7, §8, §9, §10, §11, §12

[7] = Human liver mitochondrial fraction intrinsic clearance of SPL026, SPL028i, SPL028iii, SPL028viii; format: in vitro ADME; conditions: 0.5 mg/mL human liver mitochondrial fraction (Table 10)
Source text: as §1

CYP3A5 = CYP3A5 (Homo sapiens, UniProt P20815); experiment: in vitro
Experimental: (§2) Samples were taken at predetermined time points.
(§3) Samples were then centrifuged at −4° C.
(§4) Positive control markers are as specified in Table 11.

CYP2B6 = molecular target: T2, CYP2B6 (Homo sapiens, UniProt P20813); experiment: in vitro
T2 sequence (P20813 1-491): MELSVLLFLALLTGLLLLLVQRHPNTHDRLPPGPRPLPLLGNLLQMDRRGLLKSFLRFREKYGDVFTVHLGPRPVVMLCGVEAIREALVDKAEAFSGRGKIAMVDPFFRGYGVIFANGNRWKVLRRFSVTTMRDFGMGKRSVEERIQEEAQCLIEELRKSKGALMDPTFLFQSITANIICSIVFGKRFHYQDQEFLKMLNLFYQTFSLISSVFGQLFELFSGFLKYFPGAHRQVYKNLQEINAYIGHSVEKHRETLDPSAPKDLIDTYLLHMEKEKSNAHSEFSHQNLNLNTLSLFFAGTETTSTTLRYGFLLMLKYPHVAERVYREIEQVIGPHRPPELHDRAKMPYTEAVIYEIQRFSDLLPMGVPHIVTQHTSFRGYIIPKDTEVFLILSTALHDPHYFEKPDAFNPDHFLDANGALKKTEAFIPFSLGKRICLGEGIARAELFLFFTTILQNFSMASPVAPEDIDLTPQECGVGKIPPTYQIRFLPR
Experimental: as §2, §3, §4

CYP1A2 = molecular target: T3, CYP1A2 (Homo sapiens, UniProt P05177); experiment: in vitro
T3 sequence (P05177 1-516): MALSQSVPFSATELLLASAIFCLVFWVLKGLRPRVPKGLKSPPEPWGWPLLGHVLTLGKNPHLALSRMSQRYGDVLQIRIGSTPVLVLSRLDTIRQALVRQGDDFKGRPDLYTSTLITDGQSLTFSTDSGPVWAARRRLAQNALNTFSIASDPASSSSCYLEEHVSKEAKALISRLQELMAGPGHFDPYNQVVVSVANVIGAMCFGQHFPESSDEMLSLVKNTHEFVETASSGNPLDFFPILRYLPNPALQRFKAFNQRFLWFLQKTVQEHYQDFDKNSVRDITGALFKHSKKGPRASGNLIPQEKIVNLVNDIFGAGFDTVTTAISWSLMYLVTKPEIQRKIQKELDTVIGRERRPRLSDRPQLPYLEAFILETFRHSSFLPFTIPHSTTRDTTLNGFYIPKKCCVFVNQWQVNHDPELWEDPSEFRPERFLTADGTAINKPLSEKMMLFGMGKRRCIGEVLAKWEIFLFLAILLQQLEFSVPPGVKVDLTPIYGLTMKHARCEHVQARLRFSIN
Experimental: as §2, §3, §4

CYP2C8 = molecular target: T4, CYP2C8 (Homo sapiens, UniProt P10632); experiment: in vitro
T4 sequence (P10632 1-490): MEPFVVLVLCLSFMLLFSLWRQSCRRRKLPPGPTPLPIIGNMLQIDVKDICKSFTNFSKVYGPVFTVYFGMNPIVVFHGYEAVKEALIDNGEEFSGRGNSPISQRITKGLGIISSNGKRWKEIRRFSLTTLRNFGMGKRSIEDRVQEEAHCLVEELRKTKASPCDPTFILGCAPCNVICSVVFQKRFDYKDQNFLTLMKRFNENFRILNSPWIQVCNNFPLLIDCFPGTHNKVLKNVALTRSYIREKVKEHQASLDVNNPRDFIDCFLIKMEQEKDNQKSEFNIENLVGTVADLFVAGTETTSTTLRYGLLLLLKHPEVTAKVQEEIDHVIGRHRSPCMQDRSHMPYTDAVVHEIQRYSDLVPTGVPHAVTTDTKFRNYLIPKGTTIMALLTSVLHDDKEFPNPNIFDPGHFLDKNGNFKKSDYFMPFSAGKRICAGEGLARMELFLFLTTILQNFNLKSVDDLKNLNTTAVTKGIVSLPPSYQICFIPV
Experimental: as §2, §3, §4

CYP2C9 = CYP2C9 (Homo sapiens, UniProt P11712); experiment: CYP phenotyping, CYP bactosomes
Experimental: as §2, §3, §4

CYP3A4 = CYP3A4 (Homo sapiens, UniProt P08684); experiment: CYP phenotyping, CYP bactosomes
Experimental: as §2, §3, §4

CYP2C19 = CYP2C19 (Homo sapiens, UniProt P33261); experiment: CYP phenotyping, CYP bactosomes
Experimental: as §2, §3, §4

[8] = in vivo; cited from earlier work
[9] = human liver mitochondrial fraction, Deprenyl (MAO-B inhibitor) 100 nM
[10] = human hepatocytes, with MAO-A/B inhibitor combination (Table 5)
[11] = human hepatocytes, without MAO-A/B inhibitor combination (Table 5)
[12] = E. coli CYPEX membranes, 100 pmol/mL CYP
[13] = human, recombinant enzyme, pH 7.4

CYP2C19, sequence (P33261 whole entry): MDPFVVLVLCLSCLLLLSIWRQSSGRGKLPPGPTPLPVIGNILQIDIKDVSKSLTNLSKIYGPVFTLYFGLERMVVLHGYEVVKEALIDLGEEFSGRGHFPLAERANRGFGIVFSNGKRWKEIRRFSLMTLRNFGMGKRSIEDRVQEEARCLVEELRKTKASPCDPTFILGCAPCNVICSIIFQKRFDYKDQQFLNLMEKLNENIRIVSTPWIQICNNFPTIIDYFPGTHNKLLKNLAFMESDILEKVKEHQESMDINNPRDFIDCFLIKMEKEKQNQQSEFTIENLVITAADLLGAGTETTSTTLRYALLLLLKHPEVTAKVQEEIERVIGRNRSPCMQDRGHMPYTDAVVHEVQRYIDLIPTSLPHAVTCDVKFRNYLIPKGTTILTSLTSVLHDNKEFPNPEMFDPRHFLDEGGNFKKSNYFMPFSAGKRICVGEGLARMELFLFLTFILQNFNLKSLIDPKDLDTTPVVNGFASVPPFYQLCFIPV
T1 sequence (P10635 whole entry): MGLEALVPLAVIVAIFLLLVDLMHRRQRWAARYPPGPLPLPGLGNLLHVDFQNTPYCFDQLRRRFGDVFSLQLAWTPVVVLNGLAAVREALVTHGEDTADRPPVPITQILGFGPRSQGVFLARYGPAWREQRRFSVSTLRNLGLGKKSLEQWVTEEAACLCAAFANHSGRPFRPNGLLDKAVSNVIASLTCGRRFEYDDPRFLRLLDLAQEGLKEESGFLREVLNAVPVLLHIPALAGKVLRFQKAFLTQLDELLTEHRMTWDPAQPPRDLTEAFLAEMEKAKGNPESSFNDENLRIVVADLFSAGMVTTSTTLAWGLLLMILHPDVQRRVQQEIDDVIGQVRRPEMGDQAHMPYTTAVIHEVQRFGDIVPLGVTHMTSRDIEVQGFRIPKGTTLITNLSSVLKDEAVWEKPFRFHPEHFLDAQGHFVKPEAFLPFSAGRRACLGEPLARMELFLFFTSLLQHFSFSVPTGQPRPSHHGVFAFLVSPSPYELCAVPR
CYP3A4, sequence (P08684 whole entry): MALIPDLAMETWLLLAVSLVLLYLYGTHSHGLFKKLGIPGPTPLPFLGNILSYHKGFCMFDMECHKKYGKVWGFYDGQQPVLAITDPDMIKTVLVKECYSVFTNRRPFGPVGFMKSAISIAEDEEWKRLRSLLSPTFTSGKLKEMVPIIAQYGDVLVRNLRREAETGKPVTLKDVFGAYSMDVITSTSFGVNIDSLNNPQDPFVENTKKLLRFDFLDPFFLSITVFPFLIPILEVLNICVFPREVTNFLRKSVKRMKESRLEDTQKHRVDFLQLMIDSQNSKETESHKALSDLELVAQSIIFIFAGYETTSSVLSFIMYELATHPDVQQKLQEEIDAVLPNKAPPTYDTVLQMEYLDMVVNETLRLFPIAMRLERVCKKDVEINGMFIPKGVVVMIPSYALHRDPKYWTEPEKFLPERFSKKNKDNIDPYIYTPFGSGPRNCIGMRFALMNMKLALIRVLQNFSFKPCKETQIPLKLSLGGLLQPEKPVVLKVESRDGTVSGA
CYP2C9, sequence (P11712 whole entry): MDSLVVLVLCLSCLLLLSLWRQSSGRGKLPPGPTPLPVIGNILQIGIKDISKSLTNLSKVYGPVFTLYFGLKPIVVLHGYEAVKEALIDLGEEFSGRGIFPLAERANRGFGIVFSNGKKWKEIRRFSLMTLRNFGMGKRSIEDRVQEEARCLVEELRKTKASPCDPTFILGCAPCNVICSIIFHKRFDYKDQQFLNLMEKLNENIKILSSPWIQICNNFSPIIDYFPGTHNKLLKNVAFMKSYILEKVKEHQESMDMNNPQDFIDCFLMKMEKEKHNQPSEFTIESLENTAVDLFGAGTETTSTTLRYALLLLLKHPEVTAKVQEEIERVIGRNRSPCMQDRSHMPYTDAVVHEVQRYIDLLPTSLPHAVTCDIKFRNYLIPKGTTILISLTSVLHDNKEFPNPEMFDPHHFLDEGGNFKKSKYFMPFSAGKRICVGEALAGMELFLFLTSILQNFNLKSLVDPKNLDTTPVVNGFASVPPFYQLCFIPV
CYP3A5, sequence (P20815 whole entry): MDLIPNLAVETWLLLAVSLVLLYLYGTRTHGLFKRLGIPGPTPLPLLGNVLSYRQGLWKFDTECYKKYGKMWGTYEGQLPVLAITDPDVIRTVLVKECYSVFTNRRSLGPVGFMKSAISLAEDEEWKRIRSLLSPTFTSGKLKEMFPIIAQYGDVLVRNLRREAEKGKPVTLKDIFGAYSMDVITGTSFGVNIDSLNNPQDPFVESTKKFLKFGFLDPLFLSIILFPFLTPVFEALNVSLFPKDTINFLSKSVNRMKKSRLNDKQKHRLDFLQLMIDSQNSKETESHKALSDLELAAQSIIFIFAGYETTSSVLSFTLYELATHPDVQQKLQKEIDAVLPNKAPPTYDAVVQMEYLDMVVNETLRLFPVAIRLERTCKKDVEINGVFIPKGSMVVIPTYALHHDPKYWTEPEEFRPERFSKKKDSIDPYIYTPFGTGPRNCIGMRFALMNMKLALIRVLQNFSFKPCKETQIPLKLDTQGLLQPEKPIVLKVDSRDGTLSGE

Question: Which half-life ([1]; 0.5 mg/mL human liver mitochondrial fraction, DMSO Vehicle (no inhibitor)) does the source give for `CN(C)CCc1c[nH]c2ccccc12` [SPL026, N,N-dimethyltryptamine, reference compound] here?
Answer: The half-life was 0.562 h.

Question: What about the half-life ([1]; human liver mitochondrial fraction, Clorgyline (MAO-A inhibitor) 100 nM) of the same molecule?
Answer: The half-life was over 6.228 h.

Question: And the “Intrinsic Clearance” value [1, 9]?
Answer: Its value is 42.7 μL/min/mg protein.

Question: And the half-life [1, 9]?
Answer: Its half-life is 0.542 h.

Question: And the half-life at 5 μM [2]?
Answer: The half-life at 5 μM was 0.255 h.

Question: And the hepatocyte CLint at 5 μM [2]?
Answer: Its hepatocyte CLint at 5 μM is 124 µL/min/1e6 cells.

Question: And the “projected scaled intrinsic clearance, CYP isoform 2D6” value (CYP2D6 [3])?
Answer: The value was 9.5 μl/min/mg microsomal protein.

Question: And the half-life (CYP2D6 [4])?
Answer: The half-life was 9 min.

Question: What about the “% change in half-life, MAO inhibitors vs no inhibitors” value ([5]; human hepatocytes (Table 5)) of the same molecule?
Answer: The value was 3.82%.

Question: What about the “% change in intrinsic clearance, MAO inhibitors vs no inhibitors” value ([5]; human hepatocytes (Table 5)) of the same molecule?
Answer: The value was −4.00%.

Question: And the “Intrinsic clearance, with inhibitors” value ([5]; human hepatocytes, with 100 nM clorgyline + 100 nM deprenyl/selegiline (Table 3))?
Answer: The value was 13.24 μL/min/million cells.

Question: And the “Half-life, with inhibitors” value [5, 10]?
Answer: The value was 1.601 h.

Question: What about the “Intrinsic clearance, with inhibitors” value [5, 10] of the same molecule?
Answer: The value was 13.24 μL/min/million cells.

Question: What about the “Half-life, with inhibitors” value ([5]; human hepatocytes, with MAO-A/B inhibitors (Table 4; unit given only in Table 5)) of the same molecule?
Answer: The value was 1.601 h.

Question: And the “slower intrinsic clearance with inclusion of MAO inhibitors” value ([5]; human hepatocytes, with vs without MAO inhibitors)?
Answer: The value was about 4%.

Question: And the “Half-life, without inhibitors” value ([5]; human hepatocytes, without MAO inhibitors (Table 4; unit given only in Table 5))?
Answer: Its value is 1.54 h.

Question: And the “Half-life, without inhibitors” value [5, 11]?
Answer: Its value is 1.54 h.

Question: What about the “Intrinsic clearance, without inhibitors” value [5, 11] of the same molecule?
Answer: The value was 13.77 μL/min/million cells.

Question: And the “substrate for CYP2D6” value (CYP2D6 [6]; CYP phenotyping)?
Answer: The value was “substrates”.

Question: What about the “intrinsic clearance, CYP isoform 2D6” value (CYP2D6 [6]; [12]) of the same molecule?
Answer: Its value is 801 μL/min/nmol CYP.

Question: And the half-life [7]?
Answer: The half-life was 8.6 min.

Question: What about the “intrinsic clearance, CYP isoform 3A5” value (CYP3A5; [12]) of the same molecule?
Answer: The value was under 29 μL/min/nmol CYP.

Question: What about the half-life (CYP3A5; [13]) of the same molecule?
Answer: The half-life was over 4 h.

Question: And the “intrinsic clearance, CYP isoform 2B6” value (CYP2B6; [12])?
Answer: Its value is under 29 μL/min/nmol CYP.

Question: What about the half-life (CYP2B6; [13]) of the same molecule?
Answer: Its half-life is over 4 h.

Question: What about the “intrinsic clearance, CYP isoform 1A2” value (CYP1A2; [12]) of the same molecule?
Answer: The value was under 29 μL/min/nmol CYP.

Question: What about the half-life (CYP1A2; [13]) of the same molecule?
Answer: The half-life was over 4 h.

Question: And the “intrinsic clearance, CYP isoform 2C8” value (CYP2C8; [12])?
Answer: The value was under 29 μL/min/nmol CYP.

Question: What about the half-life (CYP2C8; [13]) of the same molecule?
Answer: The half-life was over 4 h.

Question: What about the “intrinsic clearance, CYP isoform 2C9” value (CYP2C9; [12]) of the same molecule?
Answer: Its value is under 29 μL/min/nmol CYP.

Question: What about the half-life (CYP2C9; [13]) of the same molecule?
Answer: The half-life was over 4 h.

Question: And the “intrinsic clearance, CYP isoform 3A4” value (CYP3A4; [12])?
Answer: The value was under 29 μL/min/nmol CYP.

Question: What about the half-life (CYP3A4; [13]) of the same molecule?
Answer: Its half-life is over 4 h.

Question: What about the “substrate for CYP2C19” value (CYP2C19; CYP phenotyping) of the same molecule?
Answer: The value was “substrates”.

Question: What about the “intrinsic clearance, CYP isoform 2C19” value (CYP2C19; [12]) of the same molecule?
Answer: Its value is 37 μL/min/nmol CYP.

Question: And the half-life (CYP2C19; [13])?
Answer: Its half-life is 3.15 h.

Question: What about the “projected scaled intrinsic clearance, CYP isoform 2C19” value (CYP2C19; scaled by estimated CYP abundance in human liver microsomes (0.009 nmol CYP/mg)) of the same molecule?
Answer: The value was 0.3 μl/min/mg microsomal protein.

Question: With `[2H]C([2H])(c1c[nH]c2ccccc12)C([2H])([2H])N(C)C` [D4DMT, α,α,β,β-tetradeutero-N,N-dimethyltryptamine] as the molecule, how does the “behavioural effect compared to equal doses of DMT” value [8] read?
Answer: The value was “shorter time to onset and potentiation of behaviour disrupting effects”.
